According to US20080057107A1, “COMPOSITIONS FOR VAGINAL TREATMENT” (Kimberly-Clark Worldwide, Inc., priority 2004, published 2008):

Experiments:
[1] = tested on: Normal human vaginal epithelial cells; experiment: Cell proliferation, CellTiter 96 Aqueous One Solution; type: cell-based; conditions: 10^-5 M, three days after treatment, absorbance at 490 nm, vs control medium, p<0.05
Procedure: Normal human vaginal epithelial cells from Clonetics (NHVE 5164) were subcultured in basal PrEBM (Clonetics CC 3165) within 96 well plates at 37° C., 5% CO2. Cells were then exposed to medium containing mannose-6-phosphate (Sigma, M3655) at a concentration of 10^−5 M. Control groups received culture medium without mannose-6-phosphate. Cell proliferation was examined three days later and glycogen positive cells were detected five days after mannose-6-phosphate treatment. Cell proliferation was examined by using CellTiter 96 Aqueous One Solution from Promega (#TB245). Twenty μl of the reagent was added to each well. The plates were returned to cell culture incubator for 3 hours. The absorbance in each well was measured at 490 nm with a microtiter reader.

[2] = tested on: Normal human vaginal epithelial cells; experiment: Periodic acid Schiff (PAS) assay for glycogen-positive cells; type: cell-based; conditions: 10^-5 M, five days after treatment, manually counted, vs control medium
Procedure: Normal human vaginal epithelial cells from Clonetics (NHVE 5164) were subcultured in basal PrEBM (Clonetics CC 3165) within 96 well plates at 37° C., 5% CO2. Cells were then exposed to medium containing mannose-6-phosphate (Sigma, M3655) at a concentration of 10^−5 M. Control groups received culture medium without mannose-6-phosphate. Cell proliferation was examined three days later and glycogen positive cells were detected five days after mannose-6-phosphate treatment.
A periodic acid Schiff (PAS) assay was used to detect glycogen levels. Before the assay, cells were washed with PBS and fixed with a 10 vol % Formalin/ethanol solution for 1 hour at room temperature, followed by continuous rinsing with deionized (DI) water for 1 minute. A Harleco® PAS Assay Kit (from EM Science 64945/43) was used for glycogen detection. The basic principle is that the hydroxy groups on the glycogen units were first oxidized into aldehyde groups by periodic acid, and the aldehyde groups reacted with Schiff's agent to produce a red colorant. The specific assay operations were all done at room temperature as follows: • 1. Periodic acid reagent was added to the well/chamber and allowed to stand for 10 minutes. • 2. […] The numbers of glycogen-stained positive cells were manually counted under microscope. The data was analyzed by student's t test, and p<0.05 was considered significant. […]

For O=C[C@@H](O)[C@@H](O)[C@H](O)[C@H](O)COP(=O)(O)O [mannose-6-phosphate], the vaginal cell proliferation [1] was “significantly (p<0.05) increased” and the “number of glycogen-positive cells” value [2] was “significantly higher”.
